Experimental findings from ChEMBL document CHEMBL2157968, “Novel multipotent phenylthiazole-tacrine hybrids for the inhibition of cholinesterase activity, β-amyloid aggregation and Ca²⁺ overload” (Bioorg Med Chem, 2012) are described below.

One may read the IC50 as the midpoint of a concentration-inhibition curve.

For one experiment, the target named is Cholinesterase (Equus caballus, UniProt P81908).
In the next experiment the target is Acetylcholinesterase (Electrophorus electricus, UniProt O42275).
Chain of Acetylcholinesterase (O42275 whole entry): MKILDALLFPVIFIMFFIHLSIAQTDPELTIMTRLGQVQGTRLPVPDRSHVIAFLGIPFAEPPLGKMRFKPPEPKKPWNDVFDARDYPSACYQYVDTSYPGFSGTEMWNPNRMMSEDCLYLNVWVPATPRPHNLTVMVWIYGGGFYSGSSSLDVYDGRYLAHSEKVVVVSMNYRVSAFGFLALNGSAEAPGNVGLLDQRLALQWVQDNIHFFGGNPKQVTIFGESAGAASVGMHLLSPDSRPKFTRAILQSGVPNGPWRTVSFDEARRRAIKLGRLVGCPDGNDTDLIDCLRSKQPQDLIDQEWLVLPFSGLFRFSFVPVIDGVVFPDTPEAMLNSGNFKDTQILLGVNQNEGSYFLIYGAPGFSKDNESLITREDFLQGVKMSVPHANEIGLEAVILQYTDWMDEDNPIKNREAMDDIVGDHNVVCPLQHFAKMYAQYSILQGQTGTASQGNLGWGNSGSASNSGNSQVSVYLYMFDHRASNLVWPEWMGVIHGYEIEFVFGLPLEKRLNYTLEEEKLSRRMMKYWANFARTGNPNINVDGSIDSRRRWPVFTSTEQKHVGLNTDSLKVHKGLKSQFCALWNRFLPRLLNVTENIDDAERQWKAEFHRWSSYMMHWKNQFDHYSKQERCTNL
Experiment [1] concerns the target Acetylcholinesterase (Electrophorus electricus) (UniProt O42275). Description: Mixed type inhibition of electric eel AChE using acetylthiocholine chloride substrate incubated for 5 mins before substrate addition measured at 3 min interval by Lineweaver-Burk plot analysis.
The test system of the next experiment is Cerebral cortex neuron. Description: Inhibition of KCl-induced Ca2+ overload in Sprague-Dawley rat primary cortical neurons assessed as reduction in F340/F380 fluorescence ratio at 1 uM by Fura-2/AM-based fluorescence assay. The format is functional, cell-based.

Molecules are shown by their SMILES. Active and inactive are the calls of the source. No cut-off for these calls is given here.

Chain of Cholinesterase (P81908 whole entry): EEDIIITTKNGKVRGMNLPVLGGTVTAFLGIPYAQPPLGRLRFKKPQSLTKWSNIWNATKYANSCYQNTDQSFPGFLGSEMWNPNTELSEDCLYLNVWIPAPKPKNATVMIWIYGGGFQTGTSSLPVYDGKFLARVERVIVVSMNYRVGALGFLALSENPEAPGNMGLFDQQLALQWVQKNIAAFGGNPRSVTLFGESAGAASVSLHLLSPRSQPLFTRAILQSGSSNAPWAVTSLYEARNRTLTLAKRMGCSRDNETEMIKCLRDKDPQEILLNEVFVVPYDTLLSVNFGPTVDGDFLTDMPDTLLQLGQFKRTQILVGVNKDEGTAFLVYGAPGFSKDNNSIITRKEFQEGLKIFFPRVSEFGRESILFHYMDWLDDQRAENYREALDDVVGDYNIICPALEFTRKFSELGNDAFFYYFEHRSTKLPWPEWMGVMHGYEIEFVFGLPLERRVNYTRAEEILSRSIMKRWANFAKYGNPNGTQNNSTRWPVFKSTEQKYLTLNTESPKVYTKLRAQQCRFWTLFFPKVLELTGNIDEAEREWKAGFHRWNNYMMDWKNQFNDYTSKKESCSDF
Chain of Acetylcholinesterase (Electrophorus electricus) (O42275 24-633 limits assumed): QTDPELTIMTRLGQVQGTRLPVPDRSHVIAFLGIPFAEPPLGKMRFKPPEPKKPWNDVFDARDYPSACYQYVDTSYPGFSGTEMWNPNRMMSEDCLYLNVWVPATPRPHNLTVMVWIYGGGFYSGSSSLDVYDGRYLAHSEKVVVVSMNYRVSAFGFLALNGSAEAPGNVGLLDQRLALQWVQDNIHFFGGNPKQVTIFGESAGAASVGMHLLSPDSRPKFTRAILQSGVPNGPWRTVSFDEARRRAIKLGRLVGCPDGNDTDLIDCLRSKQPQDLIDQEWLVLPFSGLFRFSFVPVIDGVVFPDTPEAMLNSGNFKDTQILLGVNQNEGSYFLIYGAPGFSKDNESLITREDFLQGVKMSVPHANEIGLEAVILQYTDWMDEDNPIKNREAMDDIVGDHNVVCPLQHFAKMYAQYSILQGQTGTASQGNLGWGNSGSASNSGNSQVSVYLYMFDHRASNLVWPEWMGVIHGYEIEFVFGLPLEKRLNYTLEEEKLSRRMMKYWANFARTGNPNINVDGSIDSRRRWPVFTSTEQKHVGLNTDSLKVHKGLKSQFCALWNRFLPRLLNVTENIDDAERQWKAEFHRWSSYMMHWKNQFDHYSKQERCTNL

In the case of `O=C(CCCC(=O)Nc1nc(-c2ccccc2)cs1)NCCCNc1c2c(nc3ccccc13)CCCC2`, the half-inhibitory concentration (IC50) at Cholinesterase was 1780 nM; against Acetylcholinesterase, 380 nM.

Turning to `O=C(CCC(=O)Nc1nc2c(s1)CCCC2)NCCCCNc1c2c(nc3ccccc13)CCCC2`, the IC50 on Cholinesterase was 363 nM; against Acetylcholinesterase, 1260 nM.

In the case of `CCN(CCCNc1c2c(nc3ccccc13)CCCC2)CCC(=O)Nc1nc(-c2ccc(OC)cc2)cs1`, the IC50 against Cholinesterase was 0.479 nM; against Acetylcholinesterase it was 97.7 nM.

`O=C(CCC(=O)Nc1nc(-c2ccc(Cl)cc2)cs1)NCCCCNc1c2c(nc3ccccc13)CCCC2`: the IC50 against Cholinesterase was 16.6 nM; against Acetylcholinesterase it was 1350 nM.

As to `O=C(CCC(=O)Nc1nc(-c2ccccc2)cs1)NCCCCNc1c2c(nc3ccccc13)CCCC2`, the IC50 was 0.603 nM against Cholinesterase and 490 nM against Acetylcholinesterase.

Regarding `CCN(CCCNc1c2c(nc3ccccc13)CCCC2)CCC(=O)Nc1nc(-c2ccccc2)cs1`, the IC50 at Cholinesterase is 6.03 nM; against Acetylcholinesterase it was 324 nM.

`O=C(CCCC(=O)Nc1nc(-c2ccccc2)cs1)NCCCCNc1c2c(nc3ccccc13)CCCC2`: the half-inhibitory concentration (IC50) against Cholinesterase is 0.55 nM; against Acetylcholinesterase, 282 nM.

For the compound `CCN(CCCCNc1c2c(nc3ccccc13)CCCC2)CC(=O)Nc1nc(-c2ccc(OC)cc2)cs1`, the IC50 against Cholinesterase is 20.4 nM; against Acetylcholinesterase, 1660 nM.

Regarding `CCN(CCCCNc1c2c(nc3ccccc13)CCCC2)CCC(=O)Nc1nc(-c2ccccc2)cs1`, the IC50 is 18.2 nM against Cholinesterase and 110 nM against Acetylcholinesterase.

`O=C(CCC(=O)Nc1nc(-c2ccccc2)cs1)NCCCCCCNc1c2c(nc3ccccc13)CCCC2`: the inhibition result in experiment [1] was “Active”. Besides, the IC50 on Cholinesterase was 0.355 nM; against Acetylcholinesterase, 72.4 nM.

For `CCN(CCCCNc1c2c(nc3ccccc13)CCCC2)CCC(=O)Nc1nc(-c2ccc(OC)cc2)cs1`, the IC50 against Cholinesterase is 6.61 nM; against Acetylcholinesterase, 288 nM.

In the case of `CCN(CCCCCCNc1c2c(nc3ccccc13)CCCC2)CC(=O)Nc1nc(-c2ccccc2)cs1`, the IC50 at Cholinesterase is 468 nM; at Acetylcholinesterase, 81.3 nM.

For `CCN(CCCCNc1c2c(nc3ccccc13)CCCC2)CC(=O)Nc1nc(-c2ccc(Cl)cc2)cs1`, the IC50 was 77.6 nM against Cholinesterase and 1620 nM against Acetylcholinesterase.

As for `CCN(CCCNc1c2c(nc3ccccc13)CCCC2)CCC(=O)Nc1nc(-c2ccc(Cl)cc2)cs1`, the IC50 was 4.17 nM at Cholinesterase and 1200 nM on Acetylcholinesterase.

Consider `CCN(CCCNc1c2c(nc3ccccc13)CCCC2)CC(=O)Nc1nc(-c2ccc(OC)cc2)cs1`, for which the IC50 is 275 nM against Cholinesterase and 1380 nM on Acetylcholinesterase.

Turning to `CCN(CCCNc1c2c(nc3ccccc13)CCCC2)CC(=O)Nc1nc(-c2ccccc2)cs1`, the IC50 was 0.0447 nM at Cholinesterase and 105 nM against Acetylcholinesterase.

In the case of `CCN(CCCCCCNc1c2c(nc3ccccc13)CCCC2)CC(=O)Nc1nc(-c2ccc(OC)cc2)cs1`, the inhibition entry with Cerebral cortex neuron was “inactive”. The IC50 on Cholinesterase was 589 nM; against Acetylcholinesterase, 158 nM.

Regarding `CCN(CCCCNc1c2c(nc3ccccc13)CCCC2)CC(=O)Nc1nc(-c2ccccc2)cs1`, the values for the IC50 against Cholinesterase and on Acetylcholinesterase were 14.8 nM and 158 nM, respectively.

On to `CCN(CCCCNc1c2c(nc3ccccc13)CCCC2)CCC(=O)Nc1nc(-c2ccc(Cl)cc2)cs1`, for which the IC50 at Cholinesterase is 45.7 nM; against Acetylcholinesterase, 120 nM.
